According to ChEMBL document CHEMBL6109124, “Identification of effective anti-osteosarcoma agents via screening of an in-house NQO1-targeted compound library” (Bioorg Med Chem, 2025):
Activity calls are given as the source filed them. No cut-off for these calls is given here.

Tests used:
[1] = test system: HOS-TE85; test: Cytotoxicity against human MNNG cells assessed as cell growth inhibition at 1 uM measured after 72 hrs by MTT assay relative to control; assay type: functional; conditions: read-out: GI
[2] = test system: HOS-TE85; test: Cytotoxicity against human MNNG cells assessed as cell growth inhibition at 10 uM measured after 72 hrs by MTT assay relative to control; assay type: functional; conditions: read-out: GI
[3] = test system: HOS-TE85; test: Cytotoxicity against human MNNG cells assessed as cell growth inhibition measured after 72 hrs by MTT assay; assay type: functional, cell-based; conditions: HOS-TE85, 72 h
[4] = Cytotoxicity against HUVEC assessed as cell growth inhibition measured after 72 hrs by MTT assay; assay type: toxicity, cell-based; conditions: human, HUVEC cells
[5] = Selectivity index, ratio of IC50 for cytotoxicity against HUVEC to IC50 for cytotoxicity against human MNNG cells; assay type: toxicity, cell-based; conditions: HUVEC and human MNNG cells, read-out: Ratio IC50
[6] = test system: HOS-TE85; test: Induction of reactive oxygen species generation in human MNNG cells measured after 3 hrs by DCFH-DA probe based fluorescence assay; assay type: functional, cell-based; conditions: dose 1-10 µM
[7] = test system: HOS-TE85; test: Induction of reactive oxygen species generation in human MNNG cells at 5 to 10 uM measured after 3 hrs in presence of dicoumarol by DCFH-DA probe based fluorescence assay; assay type: functional, cell-based; conditions: dose 5-10 µM
[8] = test system: HOS-TE85; test: Induction of apoptosis in human MNNG cells assessed as viable cells at 1 uM measured after 48 hrs by Alexa Fluor 488 Annexin V/propidium iodide staining based flow cytometry (reference value: 98.8%); assay type: functional; conditions: read-out: Activity
[9] = test system: HOS-TE85; test: Induction of apoptosis in human MNNG cells assessed as early apoptotic cells at 1 uM measured after 48 hrs by Alexa Fluor 488 Annexin V/propidium iodide staining based flow cytometry (reference value: 0.69%); assay type: functional
[10] = test system: HOS-TE85; test: Induction of apoptosis in human MNNG cells assessed as late apoptotic cells at 1 uM measured after 48 hrs by Alexa Fluor 488 Annexin V/propidium iodide staining based flow cytometry (reference value: 0.51%); assay type: functional
[11] = test system: HOS-TE85; test: Induction of apoptosis in human MNNG cells assessed as necrotic cells at 1 uM measured after 48 hrs by Alexa Fluor 488 Annexin V/propidium iodide staining based flow cytometry (reference value: 0.04%); assay type: functional
[12] = test system: HOS-TE85; test: Induction of apoptosis in human MNNG cells assessed as early apoptotic cells at 5 uM measured after 48 hrs by Alexa Fluor 488 Annexin V/propidium iodide staining based flow cytometry (reference value: 0.69%); assay type: functional
[13] = test system: HOS-TE85; test: Induction of apoptosis in human MNNG cells assessed as viable cells at 5 uM measured after 48 hrs by Alexa Fluor 488 Annexin V/propidium iodide staining based flow cytometry (reference value: 98.8%); assay type: functional; conditions: read-out: Activity
[14] = test system: HOS-TE85; test: Induction of apoptosis in human MNNG cells assessed as necrotic cells at 2.5 uM measured after 48 hrs by Alexa Fluor 488 Annexin V/propidium iodide staining based flow cytometry (reference value: 0.04%); assay type: functional
[15] = test system: HOS-TE85; test: Induction of apoptosis in human MNNG cells assessed as late apoptotic cells at 2.5 uM measured after 48 hrs by Alexa Fluor 488 Annexin V/propidium iodide staining based flow cytometry (reference value: 0.51%); assay type: functional
[16] = test system: HOS-TE85; test: Induction of apoptosis in human MNNG cells assessed as early apoptotic cells at 2.5 uM measured after 48 hrs by Alexa Fluor 488 Annexin V/propidium iodide staining based flow cytometry (reference value: 0.69%); assay type: functional
[17] = test system: HOS-TE85; test: Induction of apoptosis in human MNNG cells assessed as viable cells at 2.5 uM measured after 48 hrs by Alexa Fluor 488 Annexin V/propidium iodide staining based flow cytometry (reference value: 98.8%); assay type: functional; conditions: read-out: Activity
[18] = test system: HOS-TE85; test: Induction of apoptosis in human MNNG cells assessed as late apoptotic cells at 5 uM measured after 48 hrs by Alexa Fluor 488 Annexin V/propidium iodide staining based flow cytometry (reference value: 0.51%); assay type: functional
[19] = test system: HOS-TE85; test: Induction of apoptosis in human MNNG cells assessed as necrotic cells at 5 uM measured after 48 hrs by Alexa Fluor 488 Annexin V/propidium iodide staining based flow cytometry (reference value: 0.04%); assay type: functional
[20] = test system: HOS-TE85; test: Induction of apoptosis in human MNNG cells assessed as viable cells at 10 uM measured after 48 hrs by Alexa Fluor 488 Annexin V/propidium iodide staining based flow cytometry (reference value: 98.8%); assay type: functional; conditions: read-out: Activity
[21] = test system: HOS-TE85; test: Induction of apoptosis in human MNNG cells assessed as early apoptotic cells at 10 uM measured after 48 hrs by Alexa Fluor 488 Annexin V/propidium iodide staining based flow cytometry (reference value: 0.69%); assay type: functional
[22] = test system: HOS-TE85; test: Induction of apoptosis in human MNNG cells assessed as late apoptotic cells at 10 uM measured after 48 hrs by Alexa Fluor 488 Annexin V/propidium iodide staining based flow cytometry (reference value: 0.51%); assay type: functional
[23] = test system: HOS-TE85; test: Induction of apoptosis in human MNNG cells assessed as necrotic cells at 10 uM measured after 48 hrs by Alexa Fluor 488 Annexin V/propidium iodide staining based flow cytometry (reference value: 0.04%); assay type: functional
[24] = test system: HOS-TE85; test: Cell cycle arrest in human MNNG cells assessed as accumulation of cells at G0/G1 phase at 1 uM measured after 24 hrs by propidium iodide staining based flow cytometry (reference value: 51.4%); assay type: functional
[25] = test system: HOS-TE85; test: Cell cycle arrest in human MNNG cells assessed as accumulation of cells at S phase at 1 uM measured after 24 hrs by propidium iodide staining based flow cytometry (reference value: 39.4%); assay type: functional
[26] = test system: HOS-TE85; test: Cell cycle arrest in human MNNG cells assessed as accumulation of cells at G2/M phase at 1 uM measured after 24 hrs by propidium iodide staining based flow cytometry (reference value: 39.4%); assay type: functional
[27] = test system: HOS-TE85; test: Cell cycle arrest in human MNNG cells assessed as accumulation of cells at G0/G1 phase at 2.5 uM measured after 24 hrs by propidium iodide staining based flow cytometry (reference value: 51.4%); assay type: functional
[28] = test system: HOS-TE85; test: Cell cycle arrest in human MNNG cells assessed as accumulation of cells at S phase at 2.5 uM measured after 24 hrs by propidium iodide staining based flow cytometry (reference value: 39.4%); assay type: functional
[29] = test system: HOS-TE85; test: Cell cycle arrest in human MNNG cells assessed as accumulation of cells at G2/M phase at 2.5 uM measured after 24 hrs by propidium iodide staining based flow cytometry (reference value: 39.4%); assay type: functional
[30] = test system: HOS-TE85; test: Cell cycle arrest in human MNNG cells assessed as accumulation of cells at G0/G1 phase at 5 uM measured after 24 hrs by propidium iodide staining based flow cytometry (reference value: 51.4%); assay type: functional
[31] = test system: HOS-TE85; test: Cell cycle arrest in human MNNG cells assessed as accumulation of cells at S phase at 5 uM measured after 24 hrs by propidium iodide staining based flow cytometry (reference value: 39.4%); assay type: functional
[32] = test system: HOS-TE85; test: Cell cycle arrest in human MNNG cells assessed as accumulation of cells at G2/M phase at 5 uM measured after 24 hrs by propidium iodide staining based flow cytometry (reference value: 39.4%); assay type: functional
[33] = test system: HOS-TE85; test: Cell cycle arrest in human MNNG cells assessed as accumulation of cells at G0/G1 phase at 10 uM measured after 24 hrs by propidium iodide staining based flow cytometry (reference value: 51.4%); assay type: functional
[34] = test system: HOS-TE85; test: Cell cycle arrest in human MNNG cells assessed as accumulation of cells at S phase at 10 uM measured after 24 hrs by propidium iodide staining based flow cytometry (reference value: 39.4%); assay type: functional
[35] = test system: HOS-TE85; test: Cell cycle arrest in human MNNG cells assessed as accumulation of cells at G2/M phase at 10 uM measured after 24 hrs by propidium iodide staining based flow cytometry (reference value: 39.4%); assay type: functional
[36] = Toxicity in human MNNG cell xenografted Balb/c mouse assessed as body weight loss at 15 to 45 mg/kg, iv administered every 2 days for 3 weeks and measured every other day during compound dosing; assay type: organism-based; conditions: in vivo, 504 h, dose 15-45 mg/kg, time 21 day
[37] = test system: HOS-TE85; test: Antitumor activity against human MNNG cells xenografted in Balb/c mouse assessed as tumor growth inhibition at 30 mg/kg, iv administered every 2 days for 3 weeks and measured daily during compound dosing relative to control; assay type: functional; conditions: HOS-TE85, 504 h, time 21 day, read-out: TGI
[38] = test system: HOS-TE85; test: Antitumor activity against human MNNG cells xenografted in Balb/c mouse assessed as tumor growth inhibition at 45 mg/kg, iv administered every 2 days for 3 weeks and measured daily during compound dosing relative to control; assay type: functional; conditions: HOS-TE85, 504 h, time 21 day, read-out: TGI
[39] = Toxicity in human MNNG cell xenografted Balb/c mouse assessed as mortality at 15 to 45 mg/kg, iv administered every 2 days for 3 weeks and measured every other day during compound dosing; assay type: organism-based; conditions: in vivo, 504 h, dose 15-45 mg/kg, time 21 day
[40] = test system: HOS-TE85; test: Antitumor activity against human MNNG cells xenografted in Balb/c mouse assessed as tumor growth inhibition at 15 mg/kg, iv administered every 2 days for 3 weeks and measured daily during compound dosing relative to control; assay type: functional; conditions: HOS-TE85, 504 h, time 21 day, read-out: TGI
[41] = Toxicity in human MNNG cell xenografted Balb/c mouse assessed as effect on heart at 15 to 45 mg/kg, iv administered every 2 days for 3 weeks and measured post last dose by H and E staining based microscopy; assay type: organism-based; conditions: in vivo, 504 h, dose 15-45 mg/kg, time 21 day
[42] = Toxicity in human MNNG cell xenografted Balb/c mouse assessed as effect on liver at 15 to 45 mg/kg, iv administered every 2 days for 3 weeks and measured post last dose by H and E staining based microscopy; assay type: organism-based; conditions: in vivo, 504 h, dose 15-45 mg/kg, time 21 day
[43] = Toxicity in human MNNG cell xenografted Balb/c mouse assessed as effect on spleen at 15 to 45 mg/kg, iv administered every 2 days for 3 weeks and measured post last dose by H and E staining based microscopy; assay type: organism-based; conditions: in vivo, 504 h, dose 15-45 mg/kg, time 21 day
[44] = Toxicity in human MNNG cell xenografted Balb/c mouse assessed as effect on lung at 15 to 45 mg/kg, iv administered every 2 days for 3 weeks and measured post last dose by H and E staining based microscopy; assay type: organism-based; conditions: in vivo, 504 h, dose 15-45 mg/kg, time 21 day
[45] = Toxicity in human MNNG cell xenografted Balb/c mouse assessed as effect on kidney at 15 to 45 mg/kg, iv administered every 2 days for 3 weeks and measured post last dose by H and E staining based microscopy; assay type: organism-based; conditions: in vivo, 504 h, dose 15-45 mg/kg, time 21 day
[46] = test system: HOS-TE85; test: Antitumor activity against human MNNG cells xenografted in Balb/c mouse assessed as reduction in number of live cells in tumor at 15 to 45 mg/kg, iv administered every 2 days for 3 weeks and measured post last dose by H and E staining based microscopy; assay type: functional, organism-based; conditions: dose 15-45 mg/kg, time 21.0 day
[47] = test system: HOS-TE85; test: Antitumor activity against iv dosed human MNNG cells xenografted in Balb/c mouse assessed as reduction in tumor cell proliferation administered every 2 days for 3 weeks and measured post last dose by Ki-67 staining based assay; assay type: functional, organism-based; conditions: dose 15-45 mg/kg, time 21.0 day
[48] = test system: HOS-TE85; test: Antitumor activity against iv dosed human MNNG cells xenografted in Balb/c mouse assessed as increase in apoptotic cells administered every 2 days for 3 weeks and measured post last dose by TUNEL staining based assay; assay type: functional, organism-based; conditions: dose 15-45 mg/kg, time 21.0 day
[49] = Toxicity in human MNNG cell xenografted Balb/c mouse assessed as reduction in AST level at 15 to 45 mg/kg, iv administered every 2 days for 3 weeks and measured post last dose; assay type: organism-based; conditions: in vivo, 504 h, dose 15-45 mg/kg, time 21 day
[50] = Toxicity in human MNNG cell xenografted Balb/c mouse assessed as reduction in Cr level at 15 to 45 mg/kg, iv administered every 2 days for 3 weeks and measured post last dose; assay type: organism-based; conditions: in vivo, 504 h, dose 15-45 mg/kg, time 21 day

Cc1cc2c(cc1C)-c1oc(CN3CCOCC3)c(C)c1C(=O)C2=O
inhibition of growth at 1 µM [1]: 38.2% | inhibition of growth at 10 µM [2]: 99.5% | IC50 [3]: 1.54 µM | IC50 at 72 h [4]: 19 µM | selectivity ratio [5]: 13.3 | Activity [6]: Dose-dependent-effect | Activity [7]: inactive | viability at 1 µM [8]: 89.3% | Activity [9]: 3.34% | Activity [10]: 6.97% | Activity [11]: 0.38% | Activity [12]: 18.1% | viability at 5 µM [13]: 69% | Activity [14]: 0.55% | Activity [15]: 15.2% | Activity [16]: 10.6% | viability at 2.5 µM [17]: 73.6% | Activity [18]: 12.8% | Activity [19]: 0.08% | viability at 10 µM [20]: 58.8% | Activity [21]: 23.1% | Activity [22]: 17.7% | Activity [23]: 0.42% | Activity [24]: 49.7% | Activity [25]: 41.1% | Activity [26]: 9.2% | Activity [27]: 53% | Activity [28]: 37.8% | Activity [29]: 9.2% | Activity [30]: 55.9% | Activity [31]: 37.8% | Activity [32]: 6.3% | Activity [33]: 63.7% | Activity [34]: 26.1% | Activity [35]: 10.2% | Activity [36]: Non-toxic | inhibition in vivo at 30 mg/kg [37]: 63.4% | inhibition in vivo at 45 mg/kg [38]: 73.6% | Activity [39]: Non-toxic | inhibition in vivo at 15 mg/kg [40]: 48.2% | Activity [41]: Non-toxic | Activity [42]: Non-toxic | Activity [43]: Non-toxic | Activity [44]: Non-toxic | Activity [45]: Non-toxic | Activity [46]: Active | Activity [47]: Active | Activity [48]: Dose-dependent-effect | Activity [49]: Toxic | Activity [50]: Toxic
